Measured values reported in US11969400B2, “Ibuprofen for symptomatic treatment of diarrheas in HIV patients” (priority 2021, dated 2024).

System: noninfectious diarrhea in HIV positive subjects
Assay: Randomized double-blinded study of Acetaminophen vs Ibuprofen suspension in HIV positive subjects with noninfectious diarrhea
Type: in vivo, human
Conditions: for average number of stools twenty-four hours later: after 24 hours of treatment, clear liquid diet, range in brackets, two-tailed p <0.0001 between groups, 95% CI 1.44-2.6; for average number of stools on the first visit (day 1): baseline at first visit (day 1), 42 enrollees per group
Procedure: HIV positive subjects who present with noninfectious diarrhea are enrolled in a study. All enrollees are randomly divided into two groups A (Acetaminophen) and B (Ibuprofen) and treated for 24 hours. They receive a double-blinded suspension of either Acetaminophen or Ibuprofen during the study period. The enrollees are instructed to consume only a clear liquid diet during the study period. After 24 hours, the number of loose stools since last visit and status of hydration are reassessed. In addition, enrollees are examined and assessed for any possible side effects of the medications. A total of 84 patients are enrolled into the study. Both drug categories has 42 (50%) enrollees. Two patients are lost to follow up in each group. The average number of stools on the first visit (day 1) in group A (Acetaminophen) is 5.12 and the average number of stools in group B (ibuprofen) is 5.25. Twenty-four hours later, the average number of stools, in group A is 3.45 (1-5) and the average number of stool in group B, is 1.9 (0-4). The two-tailed p-value was <0.0001 with a confidence interval at 95% (1.44-2.6).

Structure (SMILES) | average number of stools twenty-four hours later | average number of stools on the first visit (day 1)
CC(=O)Nc1ccc(O)cc1 [Acetaminophen] | 3.45 (1-5) | 5.12
CC(C)Cc1ccc(C(C)C(=O)O)cc1 (stereo not shown) [ibuprofen] | 1.9 (0-4) | 5.25
